The test system of data set [1] is Mus musculus. As to the kind of experiment: Concentration required to protect 50 % of mice against hind limb extensor component in MES test when administered perorally. The format is functional. As to conditions: Hindlimb, po.
For data set [2], the system named is Rattus norvegicus. As to the kind of experiment: Compound was evaluated for the anticonvulsant activity by testing its ability to protect against maximal electroshock- induced seizures in rats; Intraperitoneal administration (ip). It is filed as functional.
Data set [3] in a line: (§1) Compound was evaluated for the anticonvulsant activity in rats. As to conditions: rat, in vivo. The format is organism-based.
The species named for data set [4] is Rattus norvegicus. The data set is described as §1. It is filed as organism-based. The settings on record: in vivo.
Data set [5] deals with Mus musculus. As to the kind of experiment: Concentration required to protect 50 % of mice against hind limb extensor component in MES test when administered intraperitoneally. It is filed as functional. As to conditions: Hindlimb, ip.
The test system of data set [6] is Mus musculus. Briefly: Concentration required to protect 50 % of mice against hind limb extensor component in MES test when administered intravenously. It is filed as functional. As to conditions: Hindlimb, iv.
The subject of data set [7] is Rattus norvegicus. Briefly: Compound was evaluated for the anticonvulsant activity by testing its ability to protect against maximal electroshock- induced seizures in rats after peroral administration (po). It is filed as functional.
The test system of data set [8] is Rattus norvegicus. As to the kind of experiment: Compound was evaluated for the anticonvulsant activity by testing its ability to protect against maximal electroshock- induced seizures in rats; Intravenous administration (iv). It is filed as functional. Background: The maximal electroshock test induces tonic seizures with an electrical stimulus.
For data set [9], the system named is Rattus norvegicus. As to the kind of experiment: Compound was evaluated for the anticonvulsant activity by testing its ability to protect against maximal electroshock- induced seizures in rats; Peroral administration (po). It is filed as functional.

For `CNc1ncnc2c1ncn2Cc1ccccc1F` [BW-A78U], the ED50 in [1] turned out to be 14 mg/kg; in data set [2], 1.7 mg/kg; in data set [5], 5 mg/kg; in data set [6], 4 mg/kg; in data set [7], 2.5 mg/kg; in data set [8] it was 0.2 mg/kg. Further, the LD50 is above 1000 mg/kg in data set [3] and above 500 mg/kg in [4].

As to `O=C1NC(=O)C(c2ccccc2)(c2ccccc2)N1` [PHENYTOIN], the ED50 amounted to 20 mg/kg in data set [9]; 22 mg/kg in data set [1]; 10 mg/kg in data set [2]; 9 mg/kg in data set [5]; 1.8 mg/kg in data set [6]; 4 mg/kg in data set [8].

As usually defined, the ED50 is the midpoint of the dose-response relation. Read a low ED50 as an effect at a small dose. The term LD50 denotes the dose expected to kill half of the subjects tested. Low values mean greater toxicity, high ones lower toxicity.

The values above are taken from ChEMBL document CHEMBL1123297, “9-(2-Fluorobenzyl)-6-(methylamino)-9H-purine hydrochloride. Synthesis and anticonvulsant activity” (J Med Chem, 1986).
